Test results taken from ChEMBL document CHEMBL1125778, “Development of a small RGD peptide fibrinogen receptor antagonist with potent antiaggregatory activity in vitro” (J Med Chem, 1991).
Where a SMILES comes first, the peptide text is derived from it. Bridges are numbered along the chain shown (N, C = ends). [ ]: non-standard residue; d: D form. NMeR = CN[C@@H](CCCNC(=N)N)C(=O)O; Pen = CC(C)(S)[C@H](N)C(=O)O

Legend:
[1] = system: Integrin alpha-IIb/beta-3 (Canis familiaris); assay: Inhibition of canine platelet-rich plasma induced by ADP; design: concentration or dose not given beside the values; details: Canis lupus familiaris, concentration not given here
[2] = target: Integrin alpha-IIb/beta-3 (Homo sapiens, UniProt P05106+P08514); assay: Inhibition of 125[I] Fibrinogen binding to isolated purified human fibrinogen receptor; format: protein-complex assay
Sequence of Integrin alpha-IIb/beta-3 (P05106 27-788 limits assumed): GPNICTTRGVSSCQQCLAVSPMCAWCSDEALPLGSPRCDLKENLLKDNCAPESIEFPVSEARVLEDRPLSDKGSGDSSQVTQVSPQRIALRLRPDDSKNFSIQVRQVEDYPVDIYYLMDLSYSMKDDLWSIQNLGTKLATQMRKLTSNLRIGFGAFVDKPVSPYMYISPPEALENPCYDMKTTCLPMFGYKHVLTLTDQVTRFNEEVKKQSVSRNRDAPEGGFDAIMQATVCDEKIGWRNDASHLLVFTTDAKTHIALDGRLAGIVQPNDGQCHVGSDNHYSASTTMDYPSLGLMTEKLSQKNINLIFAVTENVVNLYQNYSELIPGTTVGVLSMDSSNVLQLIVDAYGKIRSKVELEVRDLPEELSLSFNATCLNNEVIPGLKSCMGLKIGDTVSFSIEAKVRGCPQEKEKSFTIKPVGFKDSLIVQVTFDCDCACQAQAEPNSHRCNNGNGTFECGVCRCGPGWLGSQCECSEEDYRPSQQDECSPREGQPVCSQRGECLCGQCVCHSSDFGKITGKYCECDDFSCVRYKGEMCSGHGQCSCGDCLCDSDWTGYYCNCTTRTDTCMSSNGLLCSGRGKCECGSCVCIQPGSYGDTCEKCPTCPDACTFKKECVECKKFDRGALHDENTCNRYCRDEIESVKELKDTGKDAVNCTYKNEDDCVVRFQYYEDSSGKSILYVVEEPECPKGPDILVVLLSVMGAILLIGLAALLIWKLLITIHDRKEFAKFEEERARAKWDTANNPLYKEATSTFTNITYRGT
Sequence of Integrin alpha-IIb/beta-3 (P08514 32-887 limits assumed): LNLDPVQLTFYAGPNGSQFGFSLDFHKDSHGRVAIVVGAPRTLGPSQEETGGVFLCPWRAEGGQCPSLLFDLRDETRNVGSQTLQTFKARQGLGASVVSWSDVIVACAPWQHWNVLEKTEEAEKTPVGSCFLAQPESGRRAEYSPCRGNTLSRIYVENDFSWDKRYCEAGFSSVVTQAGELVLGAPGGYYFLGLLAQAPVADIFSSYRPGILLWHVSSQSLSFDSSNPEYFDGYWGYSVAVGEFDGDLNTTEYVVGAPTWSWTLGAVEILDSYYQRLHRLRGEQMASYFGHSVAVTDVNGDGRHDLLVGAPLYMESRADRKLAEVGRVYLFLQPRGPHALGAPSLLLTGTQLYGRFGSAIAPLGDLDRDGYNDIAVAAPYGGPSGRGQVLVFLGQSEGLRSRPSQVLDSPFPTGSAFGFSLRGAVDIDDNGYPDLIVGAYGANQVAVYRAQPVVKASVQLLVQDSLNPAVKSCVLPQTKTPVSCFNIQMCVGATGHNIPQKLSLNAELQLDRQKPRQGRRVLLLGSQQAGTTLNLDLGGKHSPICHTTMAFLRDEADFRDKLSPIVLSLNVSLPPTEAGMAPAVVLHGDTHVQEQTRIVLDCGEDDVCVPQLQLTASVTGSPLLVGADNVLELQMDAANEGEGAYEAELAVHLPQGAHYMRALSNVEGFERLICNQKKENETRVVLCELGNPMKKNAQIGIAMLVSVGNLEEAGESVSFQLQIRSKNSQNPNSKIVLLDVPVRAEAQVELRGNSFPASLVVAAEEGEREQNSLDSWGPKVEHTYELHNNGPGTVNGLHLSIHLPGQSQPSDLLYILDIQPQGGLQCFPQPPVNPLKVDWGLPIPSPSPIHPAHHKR
Sequence of Integrin alpha-IIb/beta-3 (P08514 891-1039 limits assumed): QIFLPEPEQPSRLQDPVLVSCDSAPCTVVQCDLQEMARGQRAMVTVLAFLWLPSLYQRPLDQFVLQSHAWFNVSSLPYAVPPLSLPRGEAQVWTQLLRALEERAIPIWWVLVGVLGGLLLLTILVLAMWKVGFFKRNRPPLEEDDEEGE

Row | inhibition [1] [%] | Ki [2] [nM] | Molecule
1 | – | 58 | CC(=O)N[C@H]1CSSC(C)(C)[C@@H](C(N)=O)NC(=O)[C@H](CC(=O)O)NC(=O)CNC(=O)[C@H](CCCN=C(N)N)N(C)C1=O (Ac-C[NMeR]GD[Pen]-NH2; disulfide 1-5)
2 | 57 | – | CC(=O)N[C@@H]1CSSC(C)(C)[C@H](C(N)=O)NC(=O)[C@@H](CC(=O)O)NC(=O)CN(C)C(=O)[C@@H](CCCN=C(N)N)NC1=O
3 | – | 14500 | Ac-HHLGGAKQAGDV-OH
4 | 98 | – | CC(=O)N[C@@H](CCCN=C(N)N)C(=O)NCC(=O)N[C@@H](CC(=O)O)C(=O)N[C@@H](Cc1ccc(O)cc1)C(N)=O (Ac-RGDY-NH2)
5 | – | 5300 | CC(=O)N[C@H]1CSSC[C@@H](C(N)=O)NC(=O)[C@H](CO)NC(=O)[C@H](CC(=O)O)NC(=O)CNC(=O)[C@H](CCCN=C(N)N)NC1=O (Ac-CRGDSC-NH2; disulfide 1-6)

More lines, now with the values behind:

Row | Molecule | inhibition [1] [%] | Ki [2] [nM]
6 | CC(=O)N[C@@H](Cc1c[nH]cn1)C(=O)N[C@@H](Cc1c[nH]cn1)C(=O)N[C@@H](CC(C)C)C(=O)NCC(=O)NCC(=O)N[C@@H](C)C(=O)N[C@@H](CCCCN)C(=O)N[C@H]1CSSC(C)(C)[C@H](C(N)=O)NC(=O)[C@H](CC(=O)O)NC(=O)CNC(=O)[C@H](CCCN=C(N)N)NC1=O | 100 | –
7 | CC(=O)N[C@@H]1CSSC[C@@H](C(N)=O)NC(=O)[C@H](CC(=O)O)NC(=O)CNC(=O)[C@H](CCCN=C(N)N)NC(=O)CNC1=O | 100 | –
8 | CC(=O)N[C@@H]1CSSC(C)(C)[C@H](C(N)=O)NC(=O)[C@H](CC(=O)O)NC(=O)CNC(=O)[C@@H](CCCNC(=N)N)NC1=O | – | 720
9 | CC(=O)N[C@H]1C(=O)N(C)[C@@H](CCCN=C(N)N)C(=O)NCC(=O)N[C@@H](CC(=O)O)C(=O)N[C@@H](C(N)=O)C(C)(C)SSC1(C)C | 100 | –
10 | CC(=O)N[C@H]1C(=O)N[C@@H](CCCN=C(N)N)C(=O)NCC(=O)N[C@@H](CC(=O)O)C(=O)N[C@H](C(N)=O)CSSC1(C)C | 100 | –
11 | CC(=O)N[C@@H]1CSSC[C@H](C(N)=O)NC(=O)[C@@H](CC(=O)O)NC(=O)CNC(=O)[C@@H](CCCN=C(N)N)NC1=O | 55 | –
12 | CC(=O)N[C@@H]1CSSC(C)(C)[C@H](C(N)=O)NC(=O)[C@H](CC(=O)O)NC(=O)CNC(=O)[C@H](CCCN=C(N)N)NC(=O)CNC1=O | 100 | –
13 | CC(=O)N[C@H]1CSSC[C@@H](C(N)=O)NC(=O)[C@H](CC(=O)O)NC(=O)CNC(=O)[C@H](CCCN=C(N)N)NC1=O | – | 780
